# According to publication PMC4025572 (Biochemistry, 2014):
# pIC50: −log10 of the molar value.
# Target: human indolethylamine-N-methyltransferase (hINMT) (Homo sapiens, UniProt O95050)
# Assay: radiometric […]SAM methyltransferase assay, pure hINMT
# Type: biochemical
# Chain of human indolethylamine-N-methyltransferase (hINMT) (O95050 whole entry): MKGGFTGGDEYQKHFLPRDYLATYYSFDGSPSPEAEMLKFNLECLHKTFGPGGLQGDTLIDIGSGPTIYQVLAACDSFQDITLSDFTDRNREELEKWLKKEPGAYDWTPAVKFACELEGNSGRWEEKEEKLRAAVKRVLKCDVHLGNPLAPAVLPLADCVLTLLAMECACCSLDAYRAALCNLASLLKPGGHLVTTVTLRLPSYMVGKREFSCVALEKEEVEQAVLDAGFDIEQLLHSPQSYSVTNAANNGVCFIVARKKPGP
smiles,measurement,value
"CN(C)CCCNCCc1c[nH]c2ccccc12 [PDAT, N-[2-(1H-indol-3-yl)ethyl]-N′,N′-dimethylpropane-1,3-diamine]",pIC50,~3.00
